# Results published in patent US20220184025A1, “NOVEL DEPSIDE DIMERIC COMPOUNDS FOR SKELETAL MUSCLE MODULATION, METHODS AND USES THEREOF” (SOCIETE DES PRODUITS NESTLE S.A., priority 2019, published 2022).
# System: mouse hindlimb muscles
# Test: In vivo muscle regeneration after cardiotoxin injury
# Settings: mice, oral gavage 100 mg/kg body weight once a day from one week before cardiotoxin injury; muscles harvested 5 days after the injury; vs. water control
# Description: Early phase of expansion and subsequent phase of myogenic differentiation of Muscle Stem Cells were evaluated by counting the number of Pax7+ cells (A) and myogenin+ cells (B), respectively. Data are expressed as number of cells per area of injured muscle. The size of each newly formed myofiber (C) has been measured based on the expression of the eMHC and laminin that allow to recognize and delineate these nascent myofibers. Results are shown as mean myofiber cross-sectional area (μm2).
# In order to reproduce the physiological process of muscle regeneration that occurs in adult skeletal muscles in response to injury or disease, we performed an intramuscular injection of cardiotoxin into mouse hindlimb muscles. One week prior to the induction of the muscle injury, mice were given by oral gavage diffractaic acid (at 100 mg/kg body weight) vs. water control. Mice were treated once a day until the end of the experiment. To evaluate the efficiency of the muscle regeneration, muscles that have been previously injured were harvested 5 days after the injury and cryosections were prepared. Several myogenic markers were then measured. […]
# Data are expressed as number of cells per area of injured muscle. The size of each newly formed myofiber (FIG. 10C) has been measured based on the expression of the eMHC and laminin that allow to recognize and delineate these nascent myofibers. […]
compound,measurement,value
"COc1cc(C)c(C(=O)Oc2cc(C)c(C(=O)O)c(O)c2C)c(OC)c1C [Diffractaic acid, Benzoic acid, 2,4-dimethoxy-3,6-dimethyl-, 4-carboxy-3-hydroxy-2,5-dimethylphenyl ester]",in vivo muscle regeneration process,able to promote the in vivo muscle regeneration process
